Reference: PubChem BioAssay AID1033 (Sanford-Burnham Center for Chemical Genomics, 2008)
The source made the active and inactive calls. How the calls were made is not given here.

What follows are molecules tested against Chaperone protein DnaK (Escherichia coli (strain K12)) (UniProt P0A6Y8) (assay: binders of DnaK substrate-binding domain, biophysical, NMR, chaperone (AID 1033)). Conditions: Purified DnaK SBD, NMR ligand binding.
Sequence of Chaperone protein DnaK (Escherichia coli (strain K12)) (P0A6Y8 whole entry, looked up, the tested form may be a part): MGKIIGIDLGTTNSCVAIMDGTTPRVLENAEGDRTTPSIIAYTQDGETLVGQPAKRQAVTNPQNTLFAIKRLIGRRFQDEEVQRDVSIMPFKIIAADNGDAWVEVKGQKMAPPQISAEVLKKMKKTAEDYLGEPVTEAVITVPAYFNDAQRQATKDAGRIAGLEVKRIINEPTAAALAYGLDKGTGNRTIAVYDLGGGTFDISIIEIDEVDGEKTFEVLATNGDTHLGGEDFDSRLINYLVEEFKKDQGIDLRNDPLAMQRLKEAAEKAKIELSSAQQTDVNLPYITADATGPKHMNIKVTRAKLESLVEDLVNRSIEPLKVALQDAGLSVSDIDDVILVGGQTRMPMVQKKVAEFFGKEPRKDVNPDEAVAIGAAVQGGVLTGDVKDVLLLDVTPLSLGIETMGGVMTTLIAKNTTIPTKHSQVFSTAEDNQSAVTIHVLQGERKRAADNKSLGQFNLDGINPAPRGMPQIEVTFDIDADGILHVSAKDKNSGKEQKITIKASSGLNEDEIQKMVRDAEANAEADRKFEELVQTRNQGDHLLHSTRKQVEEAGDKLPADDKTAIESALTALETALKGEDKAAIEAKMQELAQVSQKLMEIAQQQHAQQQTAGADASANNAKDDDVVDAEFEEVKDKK

SMILES	Kd
COC(=O)[C@]1(C)CC[C@]2(C)CC[C@]3(C)C4=CCc5c(cc(O)c(O)c5C)[C@]4(C)CC[C@@]3(C)C2C1 (some centres undefined)	> 4 mM (inactive)
Cn1c(O)c(/C=C2\C=CC=N2)c(=O)[nH]c1=S	> 4 mM (inactive)
COc1ccc(C2(C)NC(=O)NC2=O)cc1 (centres undefined)	> 4 mM (inactive)
COc1cccc(Oc2ccc(N)cc2)c1	> 4 mM (inactive)
O=C1CC(N2CCC(O)CC2)C(=O)N1c1ccc(F)cc1 (centres undefined)	> 4 mM (inactive)
C=C1C2CC[C@@]3(C)[C@H](c4ccoc4)OC(=O)C[C@]13O[C@H]1C[C@H](OC(C)=O)C(C)(C)[C@H](CC(=O)OC)[C@@]21C	> 4 mM (inactive)
COc1ccc2c(c1O)-c1c(OC)c(OC)cc3c1[C@H](C2)N(C)CC3	> 4 mM (inactive)
CCOc1nc(C)ccc1-c1noc(-c2ccncc2)n1	> 4 mM (inactive)
Fc1ccc(NC2=NCCS2)cc1Cl	> 4 mM (inactive)
O=C(Nc1cnc2ccccn2c1=O)c1ccc(F)cc1	> 4 mM (inactive)
COc1ccc2c(c1)CCCN2C(N)=O	> 4 mM (inactive)
O=S1(=O)CCC(NC(=S)N2CCCCC2)C1 (centres undefined)	> 4 mM (inactive)
CNC(=O)c1ccc([N+](=O)[O-])cc1Cl	> 4 mM (inactive)
COc1ccc(C2CC(=O)NN2)cc1OC1CCCC1 (centres undefined)	> 4 mM (inactive)
NC1=NC(=O)CC(C(=O)Nc2ccccc2)S1 (centres undefined)	> 4 mM (inactive)
COC1C(O)C(O[C@H]2CC[C@]3(C=O)C4C(CC[C@]3(O)C2)[C@@]2(O)CC[C@H](C3=CC(=O)OC3)[C@@]2(C)C[C@H]4OC(C)=O)OC(C)C1OC(C)=O (some centres undefined)	> 4 mM (inactive)
c1ccc(SCc2nc(-c3ccncc3)no2)cc1	> 4 mM (inactive)
NS(=O)(=O)c1ccc2c(c1)OCCO2	> 4 mM (inactive)
OCc1ccc(-n2ccnc2)cc1	> 4 mM (inactive)
CN(C)c1n[nH]c(=O)[nH]c1=O	> 4 mM (inactive)
Cc1cc(=O)n(C(N)=S)[nH]1	> 4 mM (inactive)
O=C(NC(=S)NC1CCSC1=O)c1ccco1 (centres undefined)	> 4 mM (inactive)

SMILES	Kd
CO[C@H]1[C@@H](O)[C@@H](C)O[C@H](O[C@H]2CCC3(C)C4CCC5(C)[C@@H](C6=CC(=O)OC6)CC[C@]5(O)[C@@H]4CC[C@]3(O)C2)[C@@H]1O (some centres undefined)	> 4 mM (inactive)
COc1ccccc1NC(=O)CCC(=O)O	> 4 mM (inactive)
CC(=O)c1cccc(NS(=O)(=O)N2CCCCC2)c1	> 4 mM (inactive)
CC(=O)Nc1sccc1C(=O)NC(N)=O	> 4 mM (inactive)
O=C(c1cc2ccccc2o1)N1CCCCCC1	> 4 mM (inactive)
CN1C(=O)/C(=C/c2ccccc2O)NC1=S	> 4 mM (inactive)
Cc1ccc(CCNc2ccccc2)c[n+]1[O-]	> 4 mM (inactive)
O=C1NC(=S)NC(=O)C1=Cc1ccco1	> 4 mM (inactive)
O=C(Nc1ccccc1Cl)c1cnccn1	> 4 mM (inactive)
Cc1nc(-c2ccc(CO)s2)cs1	> 4 mM (inactive)
Cc1noc(C)c1C(=O)N1CCC2(CC1)OCCO2	> 4 mM (inactive)
N=Cc1c(O)n(-c2cccc(Cl)c2)c(=O)[nH]c1=O	> 4 mM (inactive)
CC(=O)Nc1cccc(-c2n[nH]c(=S)n2C)c1	> 4 mM (inactive)
C=C1CCC(C2CC(=O)OC2=O)C(=O)CCC2C1CC2(C)C (centres undefined)	> 4 mM (inactive)
O=C(Cc1cccs1)N1CCOCC1	> 4 mM (inactive)
COC(=O)C1CCc2ccccc2N1 (centres undefined)	> 4 mM (inactive)
CCN(CC)S(=O)(=O)c1cccc2nsnc12	> 4 mM (inactive)
COc1cc2cc3c4cc(OC)c(OC)cc4cc[n+]3c(C)c2cc1OC	> 4 mM (inactive)
CCOC(=O)c1snnc1-c1ccccc1	> 4 mM (inactive)
C[C@H]1OC(O[C@H]2[C@@H](O)CC(O[C@H]3[C@@H](O)C[C@H](O[C@H]4CC[C@]5(C)C6CC[C@]7(C)[C@@H](C8=CC(=O)OC8)[C@@H](O)C[C@]7(O)[C@@H]6CC[C@@H]5C4)O[C@@H]3C)O[C@@H]2C)C[C@H](O)C1O (some centres undefined)	> 4 mM (inactive)
OCc1ccc(Oc2ccccc2)nc1	> 4 mM (inactive)
Cc1cc(O)c2c(c1)C(=O)c1cccc(O)c1C2=O	> 4 mM (inactive)

SMILES	Kd
CCOc1ccc(N2C(=O)CCC2=O)cc1	> 4 mM (inactive)
CCCCCC/C=C\CCCCCCCc1cccc(O)c1C(=O)O	> 4 mM (inactive)
Cc1oc(-c2ccccc2)cc1CO	> 4 mM (inactive)
COC(=O)C[C@H]1C2(C)CC34OC5(C)O[C@@]6([C@H](OC)C(OC(=O)C(C)C)[C@]7(C)C(/C(=C(/OC)C(C)C)C(=O)O[C@H]7c7ccoc7)[C@@]6(O5)[C@H](OC)[C@@]3(OC)C2OC(C)=O)[C@]14C (some centres undefined)	> 4 mM (inactive)
Cc1ccccc1NC(=S)NCCO	> 4 mM (inactive)
COc1c2ccoc2cc2oc(C)cc(=O)c12	> 4 mM (inactive)
CCn1nnc(NC(=O)c2cc3ccccc3o2)n1	> 4 mM (inactive)
C/C(=C\CO)CC[C@H](C)CCC[C@H](C)CCCC(C)C	> 4 mM (inactive)
O=C1C[C@@H](c2ccccc2)Oc2cc(O)cc(O)c21	> 4 mM (inactive)
NC12CC3CC(C1)CC(CC(=O)O)(C3)C2	> 4 mM (inactive)
C=CCCCCCCCCCCCC(O)CC(O)COC(C)=O (centres undefined)	> 4 mM (inactive)
Oc1ccccc1N1CCOCC1	> 4 mM (inactive)
CSc1nnc(CN2CCSCC2)n1C	> 4 mM (inactive)
O=C(O)c1ccnc2ccccc12	> 4 mM (inactive)
O=C1CCNc2cc3ccccc3cc21	> 4 mM (inactive)
O=c1[nH]nc(Cc2ccccn2)c2ccccc12	> 4 mM (inactive)
O=C(O)CCC1NCC2CC1CN1CCCCC21 (centres undefined)	> 4 mM (inactive)
O=C1NC(=O)C(c2ccccc2)C(=O)N1	> 4 mM (inactive)
O=C(O)c1cc2ccccc2o1	> 4 mM (inactive)
O=S(=O)(c1ccc(F)c(Cl)c1)N1CCCC1	> 4 mM (inactive)
NC(=O)NC1C=CS(=O)(=O)C1 (centres undefined)	> 4 mM (inactive)
COc1cc(C2NC(=S)NC(C)=C2C(C)=O)ccc1O (centres undefined)	> 4 mM (inactive)

SMILES	Kd
COC(=O)c1cccc(Cn2nnc3ccccc3c2=O)c1	> 4 mM (inactive)
CC(C)NC(=O)Cc1c(O)c2ccccc2[nH]c1=O	> 4 mM (inactive)
CCc1ccc2oc(-c3cc(N)cc(C)c3O)nc2c1	> 4 mM (inactive)
O=C1CCC(=O)N1c1ccc(O)cc1	> 4 mM (inactive)
COC(=O)[C@@H]1OC(=O)C2OC23[C@@]1(C)CCC1[C@]2(C)C(C[C@@H](O)[C@]13C)C(C)(C)[C@H](OC(C)=O)C[C@@H]2OC(C)=O (some centres undefined)	> 4 mM (inactive)
O=C1OC(N2CCOCC2)c2ccccc21 (centres undefined)	> 4 mM (inactive)
CC(C)C(=O)NC(=S)N1CCOCC1	> 4 mM (inactive)
O=S1(=O)CCC(NC(=S)N2CCOCC2)C1 (centres undefined)	> 4 mM (inactive)
CCN1C[C@@]2(COC)C3[C@@H](OC)[C@H]4[C@@H]1[C@]3(C(OC)C[C@H]2O)C1C[C@@]2(O)[C@H](OC(=O)c3ccccc3)C1[C@]4(OC(C)=O)[C@@H](O)[C@@H]2OC (some centres undefined)	> 4 mM (inactive)
Cn1c(=O)c2[nH]cnc2n(C)c1=O	> 4 mM (inactive)
O=C(c1cccc(C(F)(F)F)c1)N1CCCC1	> 4 mM (inactive)
CCOC(=O)CC1Sc2ccccc2NC1=S (centres undefined)	> 4 mM (inactive)
Cc1ccccc1NC(=O)CC1NCCNC1=O (centres undefined)	> 4 mM (inactive)
Cc1ccc(/C=C/C(=O)O)cc1S(=O)(=O)NCCO	> 4 mM (inactive)
Cc1nnc2sc(-c3csc4c3CCCC4)nn12	> 4 mM (inactive)
CC(CC(O)C1OC1(C)C)[C@@H]1CCC2(C)C3=CCC4C(C)(C)C(=O)CCC4(C)C3CC[C@@]12C (some centres undefined)	> 4 mM (inactive)
CC(C)=CCc1c2c(c3occ(-c4ccc(O)cc4)c(=O)c3c1O)C=CC(C)(C)O2	> 4 mM (inactive)
O=C(NCC1CCNCC1)c1ccccn1	> 4 mM (inactive)
COC(=O)c1cncc(C(=O)OC)c1	> 4 mM (inactive)
O=CN1CCN(C2CC(=O)N(c3ccccc3)C2=O)CC1 (centres undefined)	> 4 mM (inactive)
COc1cc(-c2csc(C)n2)ccc1O	> 4 mM (inactive)
COc1ccc(C(N)=O)cc1N	> 4 mM (inactive)

SMILES	Kd
CC(=O)N1CCC(NC2CCCCCC2)CC1	> 4 mM (inactive)
COc1cc2c(cc1OC)[C@@H]1C(=O)c3ccc4c(c3O[C@@H]1CO2)CC(C(C)C)O4 (some centres undefined)	> 4 mM (inactive)
O=c1cc(-c2ccccc2)oc2c(O)c(O)ccc12	> 4 mM (inactive)
C[C@H](CCC(=O)O)[C@H]1CCC2C3C(CC[C@@]21C)[C@@]1(C)CC[C@@H](O)C[C@H]1C[C@H]3O (some centres undefined)	> 4 mM (inactive)
COc1cc(OC)c2c(=O)c(-c3ccccc3)coc2c1	> 4 mM (inactive)
Cc1ccc(-c2nc(-c3cccnc3)no2)c(C)c1	> 4 mM (inactive)
Cc1nn(-c2ccccc2)nc1CO	> 4 mM (inactive)
CC(C)=CCc1c2c(c(O)c3c(=O)c(O)c(-c4ccccc4)oc13)C=CC(C)(C)O2	> 4 mM (inactive)
CNCc1ccccc1	> 4 mM (inactive)
Cn1c(CO)nc2ccccc21	> 4 mM (inactive)
S=C(NC1CC1)NN1CCOCC1	> 4 mM (inactive)
Cc1nnsc1-c1onc(C)c1C(=O)O	> 4 mM (inactive)
CN(C)c1oc(-c2ccccc2Cl)nc1C#N	> 4 mM (inactive)
O=C(NCO)c1ccc([N+](=O)[O-])cc1	> 4 mM (inactive)
COC1CC(O[C@H]2CC[C@]3(C=O)C4CC[C@]5(C)C(C6=CC(=O)OC6)CC[C@]5(O)C4CC[C@]3(O)C2)OC(C)C1O (some centres undefined)	> 4 mM (inactive)
CN1CCN(C2CCN(Cc3ccccc3)CC2)CC1	> 4 mM (inactive)
OC1CCC(C(F)(F)F)CC1 (centres undefined)	> 4 mM (inactive)
Cc1ccc2cccc(OC(=O)N3CCCC3)c2n1	> 4 mM (inactive)
C[C@H]1[C@H]2CCC3C4CC=C5C[C@@H](N(C)C)CC[C@]5(C)C4CC[C@@]32CN1C (some centres undefined)	> 4 mM (inactive)
O=c1c2ccccc2nc2n1CCCCN2	> 4 mM (inactive)
O=C(c1ccc(F)cc1)N1CCN(c2ncccn2)CC1	> 4 mM (inactive)
